Assay results published in patent US6737383B1, “Herbicidal oxadiazolidines” (priority 1999, dated 2004).

What was measured:
[1] = test system: sugar beet; experiment: Test B pre/postemergence sugar beet; assay type: in vivo, Beta vulgaris
Procedure, shortened: (§1)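 Response is a visual 0-to-10 score relative to untreated plants, where 0 means no effect and 10 means complete control, taken twelve to sixteen days after application. Treatments went onto soil at planting and onto foliage of 1- to 4-leaf plants, using a surfactant-containing non-phytotoxic solvent.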

[2] = test system: giant foxtail; experiment: Test B pre/postemergence giant foxtail; assay type: in vivo, Setaria faberii
Procedure, shortened: as §1

[3] = test system: duck salad; experiment: Test B flood test duck salad; assay type: in vivo, Heteranthera limosa
Procedure, shortened: (§2)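 Each value is a visual injury score relative to controls, with 10 meaning complete control and 0 no effect. Evaluation took place twelve to sixteen days after the 2-leaf-stage plants were treated and kept in the greenhouse.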

[4] = test system: purple nutsedge; experiment: Test B pre/postemergence purple nutsedge; assay type: in vivo, Cyperus rotundus
Procedure, shortened: as §1

[5] = test system: corn; experiment: Test B pre/postemergence corn; assay type: in vivo, Zea mays
Procedure, shortened: as §1

[6] = test system: rice; experiment: Test B flood test rice; assay type: in vivo, Oryza sativa
Procedure, shortened: as §2

[7] = test system: surinam grass; experiment: Test B pre/postemergence surinam grass; assay type: in vivo, Brachiaria decumbens
Procedure, shortened: as §1

[8] = test system: rape; experiment: Test B pre/postemergence rape; assay type: in vivo, Brassica napus
Procedure, shortened: as §1

[9] = test system: pigweed; experiment: Test B pre/postemergence pigweed; assay type: in vivo, Amaranthus retroflexus
Procedure, shortened: as §1

[10] = test system: blackgrass; experiment: Test B pre/postemergence blackgrass; assay type: in vivo, Alopecurus myosuroides
Procedure, shortened: as §1

[11] = test system: bamyardgrass; experiment: Test B flood test barnyardgrass; assay type: in vivo, Echinochloa crus-galli
Procedure, shortened: as §2

[12] = test system: bedstraw; experiment: Test B pre/postemergence bedstraw; assay type: in vivo, Galium aparine
Procedure, shortened: as §1

[13] = test system: cocklebur; experiment: Test B pre/postemergence cocklebur; assay type: in vivo, Xanthium strumarium
Procedure, shortened: as §1

[14] = test system: velvetleaf; experiment: Test B pre/postemergence velvetleaf; assay type: in vivo, Abutilon theophrasti
Procedure, shortened: as §1

[15] = test system: morningglory; experiment: Test B pre/postemergence morningglory; assay type: in vivo, Ipomoea hederacea
Procedure, shortened: as §1

[16] = Postemergence, Rate 62 g/ha, scale 0 to 10, 0 is no effect, 10 is complete control
[17] = Postemergence, Rate 125 g/ha, scale of 0 to 10 where 0 is no effect and 10 is complete control
[18] = Postemergence, Rate 250 g/ha, scale of 0 to 10, 0 is no effect, 10 is complete control
[19] = Postemergence, Rate 500 g/ha, scale of 0 to 10 where 0 is no effect and 10 is complete control
[20] = Preemergence, Rate 62 g/ha, scale 0 to 10 (0 no effect, 10 complete control)
[21] = Preemergence, Rate 125 g/ha, scale of 0 to 10 where 0 is no effect and 10 is complete control
[22] = Preemergence, Rate 500 g/ha, scale of 0 to 10 where 0 is no effect and 10 is complete control
[23] = Rate 62 g/ha, flood test species, Pre-emergence, visual evaluation after twelve to sixteen days
[24] = Rate 125 g/ha, under heading Pre-emergence, flood test species, visual evaluation after twelve to sixteen days
[25] = Rate 250 g/ha, Pre-emergence (flood test species), scale 0 to 10, 0 is no effect, 10 is complete control
[26] = Rate 500 g/ha, Pre-emergence section of Table B, 0 to 10 scale (0 no effect, 10 complete control)

## C=C(Cn1c(=O)on(C(=O)N(c2ccccc2)C(C)C)c1=O)c1cccc(Cl)n1 [Compound 605]
[1]; [16]
  Plant response rating, Sugarbeets: 0
[1]; [17]
  Plant response rating, Sugarbeets: 0
[1]; [18]
  Sugarbeets plant response rating: 0
[1]; [19]
  Plant response rating, Sugarbeets: 0
[1]; [20]
  Sugarbeets plant response rating: 0
[1]; [21]
  Sugarbeets plant response rating: 0
[1]; [22]
  Plant response rating, Sugarbeets: 0
[2]; [16]
  Plant response rating, Giant foxtail: 0
[2]; [17]
  Plant response rating, Giant foxtail: 0
[2]; [18]
  Giant foxtail plant response rating: 0
[2]; [19]
  Plant response rating, Giant foxtail: 2
[2]; [20]
  Giant foxtail plant response rating: 2
[2]; [21]
  Giant foxtail plant response rating: 10
[2]; [22]
  Plant response rating, Giant foxtail: 10
[3]; [23]
  Plant response rating, Ducksalad (0 to 10 scale, 0 is no effect, 10 is complete control): 0
[3]; [24]
  Ducksalad plant response rating (0 to 10 scale, 0 is no effect, 10 is complete control): 0
[3]; [25]
  Ducksalad plant response rating: 0
[3]; [26]
  Ducksalad plant response rating: 0
[4]; [16]
  Plant response rating, Nutsedge: 0
[4]; [17]
  Plant response rating, Nutsedge: 0
[4]; [18]
  Nutsedge plant response rating: 0
[4]; [19]
  Plant response rating, Nutsedge: 0
[4]; [20]
  Nutsedge plant response rating: 0
[4]; [21]
  Nutsedge plant response rating: 0
[4]; [22]
  Plant response rating, Nutsedge: 0
[5]; [16]
  Plant response rating, Corn: 0
[5]; [17]
  Plant response rating, Corn: 0
[5]; [18]
  Corn plant response rating: 0
[5]; [19]
  Plant response rating, Corn: 0
[5]; [20]
  Corn plant response rating: 0
[5]; [21]
  Corn plant response rating: 0
[5]; Preemergence, Rate 250 g/ha
  Corn plant response rating (0 to 10 scale): 0
[5]; [22]
  Plant response rating, Corn: 0
[6]; [23]
  Plant response rating, Rice (0 to 10 scale, 0 is no effect, 10 is complete control): 0
[6]; [24]
  Rice plant response rating (0 to 10 scale, 0 is no effect, 10 is complete control): 0
[6]; [25]
  Rice plant response rating: 0
[6]; [26]
  Rice plant response rating: 0
[7]; [16]
  Plant response rating, B. signalgrass: 0
[7]; [17]
  Plant response rating, B. signalgrass: 0
[7]; [18]
  B. signalgrass plant response rating: 0
[7]; [19]
  Plant response rating, B. signalgrass: 0
[7]; [20]
  B. signalgrass plant response rating: 0
[7]; [21]
  B. signalgrass plant response rating: 0
[7]; Preemergence, Rate 250 g/ha
  B. signalgrass plant response rating (0 to 10 scale, 0 is no effect, 10 is complete control): 0
[7]; [22]
  B. signalgrass plant response rating: 0
[8]; [16]
  Plant response rating, Rape: 0
[8]; [17]
  Plant response rating, Rape: 0
[8]; [18]
  Rape plant response rating: 0
[8]; [19]
  Plant response rating, Rape: 0
[8]; [20]
  Rape plant response rating: 0
[8]; [21]
  Rape plant response rating: 0
[8]; [22]
  Plant response rating, Rape: 0
[9]; [16]
  Plant response rating, Redroot pigweed: 0
[9]; [17]
  Plant response rating, Redroot pigweed: 0
[9]; [18]
  Redroot pigweed plant response rating: 0
[9]; [19]
  Plant response rating, Redroot pigweed: 0
[9]; [20]
  Redroot pigweed plant response rating: 0
[9]; [21]
  Redroot pigweed plant response rating: 0
[9]; [22]
  Plant response rating, Redroot pigweed: 0
[10]; [16]
  Plant response rating, Blackgrass: 0
[10]; [17]
  Plant response rating, Blackgrass: 0
[10]; [18]
  Blackgrass plant response rating: 0
[10]; [19]
  Plant response rating, Blackgrass: 0
[10]; [20]
  Blackgrass plant response rating: 0
[10]; [21]
  Blackgrass plant response rating: 0
[10]; Preemergence, Rate 250 g/ha
  Blackgrass plant response rating (0 to 10 scale): 0
[10]; [22]
  Blackgrass plant response rating: 0
[11]; [23]
  Plant response rating, Barnyardgrass (0 to 10 scale, 0 is no effect, 10 is complete control): 0
[11]; [24]
  Barnyardgrass plant response rating (0 to 10 scale, 0 is no effect, 10 is complete control): 0
[11]; [25]
  Barnyardgrass plant response rating: 0
[11]; [26]
  Barnyardgrass plant response rating: 0
[12]; [16]
  Plant response rating, Bedstraw: 0
[12]; [20]
  Bedstraw plant response rating: 0
[12]; [21]
  Bedstraw plant response rating: 0
[12]; Preemergence, Rate 250 g/ha
  Bedstraw plant response rating (0 to 10 scale): 0
[12]; [22]
  Bedstraw plant response rating: 0
[13]; [16]
  Plant response rating, Cocklebur: 0
[13]; [17]
  Plant response rating, Cocklebur: 0
[13]; [18]
  Cocklebur plant response rating: 0
[13]; [19]
  Plant response rating, Cocklebur: 0
[13]; [20]
  Cocklebur plant response rating: 0
[13]; [21]
  Cocklebur plant response rating: 0
[13]; Preemergence, Rate 250 g/ha
  Cocklebur plant response rating (0 to 10 scale): 0
[13]; [22]
  Plant response rating, Cocklebur: 0
[14]; [16]
  Plant response rating, Velvetleaf: 0
[14]; [17]
  Plant response rating, Velvetleaf: 0
[14]; [18]
  Velvetleaf plant response rating: 0
[14]; [19]
  Plant response rating, Velvetleaf: 0
[14]; [20]
  Velvetleaf plant response rating: 0
[14]; [21]
  Velvetleaf plant response rating: 0
[14]; [22]
  Plant response rating, Velvetleaf: 0
[15]; [17]
  Plant response rating, Morningglory: 6
[15]; [18]
  Morningglory plant response rating: 9
[15]; [19]
  Plant response rating, Morningglory: 10
[15]; [20]
  Morningglory plant response rating: 0
[15]; [21]
  Morningglory plant response rating: 0
